Some results are limits rather than exact numbers.

The record followed here is US9023847B2, “Azaheterocyclic compounds” (Merck Patent GmbH, priority 2009, dated 2015).

The target of the test is T1, P70S6K (T412E mutant, Millipore) (Homo sapiens, UniProt P23443, T412E).
T1 construct: purchased Millipore
T1 sequence (P23443 whole entry T412E): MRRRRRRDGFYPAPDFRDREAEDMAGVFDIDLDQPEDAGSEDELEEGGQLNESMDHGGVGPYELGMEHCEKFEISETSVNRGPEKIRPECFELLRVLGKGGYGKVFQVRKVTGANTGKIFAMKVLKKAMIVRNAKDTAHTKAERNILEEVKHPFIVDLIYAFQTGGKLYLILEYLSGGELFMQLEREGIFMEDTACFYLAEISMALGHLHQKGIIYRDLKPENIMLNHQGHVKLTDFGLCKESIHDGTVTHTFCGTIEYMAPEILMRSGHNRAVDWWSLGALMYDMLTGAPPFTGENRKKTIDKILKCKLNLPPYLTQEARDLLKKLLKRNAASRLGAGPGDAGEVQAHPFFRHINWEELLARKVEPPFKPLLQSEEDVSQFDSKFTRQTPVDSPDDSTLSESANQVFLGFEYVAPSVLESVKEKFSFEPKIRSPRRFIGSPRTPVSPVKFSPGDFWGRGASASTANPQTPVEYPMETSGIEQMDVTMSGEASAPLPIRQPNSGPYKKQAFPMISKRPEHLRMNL
Put plainly: p70S6K enzyme assay. In kind it is biochemical. As to conditions: class symbol; 3 nM P70S6K, 24 μM ATP; read-out: IC50 (p70S6K). Put shortly:
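T412E-mutant P70S6K (3 nM) with 24 μM ATP and 1 μM FITC-AHA-AKRRRLSSLRA-OH S6-derived peptide in 100 mM Hepes pH 7.5, 5 mM MgCl2, 1 mM DTT, 0.015% Brij; 90 min at 25° C, EDTA stop. Phosphorylated product and substrate peptide separated and quantified by microfluidic capillary electrophoresis (Caliper LabChip 3000).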
As to `O=C(NCCNCc1ccsc1)c1sccc1Nc1ccnc2[nH]ccc12` [Example 46, 3-(1H-Pyrrolo[2,3-b]pyridin-4-ylamino)-thiophene-2-carboxylic acid {2-[(thiophen-3-ylmethyl)-amino]-ethyl}-amide], the IC50 is less than 100 nM.

For the compound `NC[C@@H](NC(=O)c1ccsc1Nc1ccnc2[nH]ccc12)c1ccccc1` [Example 140, 2-(1H-Pyrrolo[2,3-b]pyridin-4-ylamino)-thiophene-3-carboxylic acid ((S)-2-amino-1-phenyl-ethyl)-amide], the IC50 is less than 100 nM.

Consider `COc1ccc(CNCCNC(=O)c2sccc2Nc2ccnc3[nH]ccc23)cc1Cl` [Example 137, 3-(1H-Pyrrolo[2,3-b]pyridin-4-ylamino)-thiophene-2-carboxylic acid [2-(3-chloro-4-methoxy-benzylamino)-ethyl]-amide], for which the IC50 was less than 100 nM.

For the compound `O=C(N[C@H](CO)c1ccccc1)c1sccc1Nc1ccnc2[nH]ccc12` [Example 44, S-[3-(1H-Pyrrolo[2,3-b]pyridin-4-ylamino)-thiophene-2-carboxylic acid (2-hydroxy-1-phenyl-ethyl)-amide]], the IC50 is less than 100 nM.

For the compound `COc1ccccc1C(CN)NC(=O)c1sccc1Nc1ccnc2[nH]ccc12` (stereo not shown) [Example 107, 3-(1H-Pyrrolo[2,3-b]pyridin-4-ylamino)-thiophene-2-carboxylic acid [2-amino-1-(2-methoxy-phenyl)-ethyl]-amide], the concentration for half-maximal inhibition (IC50) was less than 100 nM.

Regarding `O=C(NCCNCc1ccccc1F)c1sccc1Nc1ccnc2[nH]ccc12` [Example 58, 3-(1H-Pyrrolo[2,3-b]pyridin-4-ylamino)-thiophene-2-carboxylic acid [2-(2-fluoro-benzylamino)-ethyl]-amide], the IC50 is less than 100 nM.

For the compound `NC[C@@H](NC(=O)c1sccc1Nc1ccnc2[nH]ccc12)c1cccc(F)c1` [Example 171, 3-(1H-Pyrrolo[2,3-b]pyridin-4-ylamino)-thiophene-2-carboxylic acid [(S)-2-amino-1-(3-fluoro-phenyl)-ethyl]-amide], the IC50 is less than 100 nM.

Regarding `NC(CNC(=O)c1sccc1Nc1ccnc2[nH]ccc12)c1ccccc1` (stereo not shown) [Example 78, 3-(1H-Pyrrolo[2,3-b]pyridin-4-ylamino)-thiophene-2-carboxylic acid (2-amino-2-phenyl-ethyl)-amide], the IC50 was less than 100 nM.

On to `NCCCNC(=O)c1sccc1Nc1ccnc2[nH]ccc12` [Example 67, 3-(1H-Pyrrolo[2,3-b]pyridin-4-ylamino)-thiophene-2-carboxylic acid (3-amino-propyl)-amide], for which the IC50 lay within 100 to 1000 nM.

Regarding `Nc1cccc(CNC(=O)c2sccc2Nc2ccnc3[nH]ccc23)c1` [Example 87, 3-(1H-Pyrrolo[2,3-b]pyridin-4-ylamino)-thiophene-2-carboxylic acid 3-amino-benzylamide], the IC50 is less than 100 nM.

On to `O=C(NCCSCc1ccco1)c1sccc1Nc1ccnc2[nH]ccc12` [Example 24, 3-(1H-Pyrrolo[2,3-b]pyridin-4-ylamino)-thiophene-2-carboxylic acid [2-(furan-2-ylmethylsulfanyl)-ethyl]-amide], for which the IC50 was less than 100 nM.

As for `O=C(Nc1cccc(CNC(=O)c2sccc2Nc2ccnc3[nH]ccc23)c1)c1ccnc(N2CCCC2)c1` [Example 161, 2-Pyrrolidin-1-yl-N-[3-({[3-(1H-pyrrolo[2,3-b]pyridin-4-ylamino)-thiophene-2-carbonyl]-amino}-methyl)-phenyl]-isonicotinamide], the IC50 was less than 100 nM.

For `CN1CCN(c2cc(C(=O)Nc3cccc(CNC(=O)c4sccc4Nc4ccnc5[nH]ccc45)c3)ccn2)CC1` [Example 163, 2-(4-Methyl-piperazin-1-yl)-N-[3-({[3-(1H-pyrrolo[2,3-b]pyridin-4-ylamino)-thiophene-2-carbonyl]-amino}-methyl)-phenyl]-isonicotinamide], the IC50 is less than 100 nM.

Consider `NCC(NC(=O)c1ccsc1Nc1ccnc2[nH]ccc12)c1cccc(Cl)c1` (stereo not shown) [Example 130, 2-(1H-Pyrrolo[2,3-b]pyridin-4-ylamino)-thiophene-3-carboxylic acid [2-amino-1-(3-chloro-phenyl)-ethyl]-amide], for which the IC50 was less than 100 nM.

`O=C(NCc1cccc(Cl)c1)c1occc1Nc1ncnc2[nH]ccc12` [Example 176, 3-(7H-Pyrrolo[2,3-d]pyrimidin-4-ylamino)-furan-2-carboxylic acid 3-chloro-benzylamide]: the IC50 is less than 100 nM.

For the compound `CC(CO)NC(=O)c1sccc1Nc1ccnc2[nH]ccc12` (stereo not shown) [Example 10, 3-(1H-Pyrrolo[2,3-b]pyridin-4-ylamino)-thiophene-2-carboxylic acid (2-hydroxy-1-methyl-ethyl)-amide], the IC50 was in the range of 100 to 1000 nM.

Regarding `N#CC[C@@H](NC(=O)c1sccc1Nc1ccnc2[nH]ccc12)c1ccccc1` [Example 115, 3-(1H-Pyrrolo[2,3-b]pyridin-4-ylamino)-thiophene-2-carboxylic acid ((R)-2-cyano-1-phenyl-ethyl)-amide], the IC50 was less than 100 nM.

As to `Cc1ccc([C@@H](CN)NC(=O)c2sccc2Nc2ccnc3[nH]ccc23)cc1` (stereo in doubt) [Example 122, 3-(1H-Pyrrolo[2,3-b]pyridin-4-ylamino)-thiophene-2-carboxylic acid (2-amino-1-p-tolyl-ethyl)-amide], the IC50 was less than 100 nM.

Take `O=C(NCCc1ccccn1)c1sccc1Nc1ccnc2[nH]ccc12` [Example 19, 3-(1H-Pyrrolo[2,3-b]pyridin-4-ylamino)-thiophene-2-carboxylic acid (2-pyridin-2-yl-ethyl)-amide]: the IC50 was 100 to 1000 nM.

Regarding `NCCNC(=O)c1sccc1Nc1ccnc2[nH]ccc12` [Example 42, 3-(1H-Pyrrolo[2,3-b]pyridin-4-ylamino)-thiophene-2-carboxylic acid (2-amino-ethyl)-amide], the IC50 is less than 100 nM.

`Cc1ccccc1CCNC(=O)c1sccc1Nc1ncnc2[nH]ccc12` [Example 181, 3-(7H-Pyrrolo[2,3-d]pyrimidin-4-ylamino)-thiophene-2-carboxylic acid (2-o-tolyl-ethyl)-amide]: the IC50 is less than 100 nM.

With `O=C(NCCc1ccccc1)c1sccc1Nc1ncnc2[nH]ccc12` [Example 174, 3-(7H-Pyrrolo[2,3-d]pyrimidin-4-ylamino)-thiophene-2-carboxylic acid phenethylamide], the IC50 is less than 100 nM.
